Where two headings read alike, the source gives them in different places.
Tested on: 22RV1 cells
Assay: Cell proliferation assay (CellTiter Glo), 22RV1
Format: cell-based
Conditions: Homo sapiens, 22Rv1, 72 h, read-out: 22RV1 IC50
Method: IC50 values were calculated and graphed using the model “log(inhibitor) vs. response—Variable slope” included in GraphPad Prism 5 (San Diego, CA). The Ki values were further calculated using the equation below where [L] was the radioligand concentration (1 nM) using in this study. Kd value was 0.332 nM. Ki=IC50/(1+[L]/Kd) c. AR transactivation: Human AR cloned into a CMV vector backbone was used for the transactivation study. HEK-293 cells were plated at 80,000 cells per well of a 24 well plate in DME+5% csFBS. Twenty four hours later, the cells were transfected using Lipofectamine (Invitrogen, Carlsbad, CA) with 0.25 μg GRE-LUC, 0.01 μg CMV-LUC (renilla luciferase) and 25 ng of the AR in OPTIMEM medium. The cells were treated 24 hrs after transfection with various ligands (10^−12 to 10^−5 M final concentrations) and luciferase assay were performed 48 hours after transfection. Firefly values were normalized to renilla luciferase values and the values were represented as relative light units (RLU). Agonist and antagonist assays for the test article were performed in the absence and in the combination with 0.1 nM R1881, respectively. Data were represented as EC50 (for agonists) and IC50 (for antagonists) obtained from four parameter logistics curve. Cell culture and proliferation assays: LNCaP, PC-3, 22RV1, MCF-7, HT-29, and HCT-116 cells were procured from American Type Culture Collection (ATCC). Cells were cultured in medium recommended by the ATCC. Cell culture medium was obtained from Fisher scientific (Waltham, MA) and serum was obtained from Hyclone (San Angelo, TX).
Cells were plated at varying density in the respective growth medium in 96 well plates. 24 hr later, cells were treated, in triplicate or quadruplicate, with test articles prepared in a range of concentrations by series dilution of DMSO stock solutions in growth medium and incubated for three to seven days. The number of viable 22RV1 and HT-29 cells was measured using CellTiter Glo assay (CTG, Promega, Madison, WI) after three days of treatment. The other types of cancer cells were re-treated at three or four days and the number of viable cells was measured using CTG assay after a total treatment time of six or seven days. Cell viability data were plotted using GraphPad Prism (GraphPad Software, Inc., San Diego, CA). In addition, a nonlinear regression model with a sigmoidal dose response and variable slope within GraphPad Prism was used to calculate the IC50 value of individual test articles. Additional cell proliferation assays: Other cancer cell lines are tested in a cell proliferation assay. For example, SK-OV-3 or OVCAR3 ovarian cancer cells are tested. Cells are cultured in medium recommended by the supplier (e.g., ATCC or JCRB Cell Bank), at 37° C. in a 5% CO2 environment. For the proliferation assay, cells are plated in the growth medium in 96 well plates. Seeding density is adjusted according to the cell type. 24 hr later, cells are treated, in triplicate or quadruplicate, with test articles prepared in a range of concentrations by series dilution of DMSO stock solutions in growth medium, and typically incubated for three to seven days, with test article-containing medium replaced after three or four days. The number of viable cells is measured using CellTiter Glo assay (CTG, Promega, Madison, WI) or similar. Cell viability data are plotted using GraphPad Prism (GraphPad Software, Inc., San Diego, CA). In addition, a nonlinear regression model with a sigmoidal dose response and variable slope within GraphPad Prism is used to calculate the IC50 value of individual test articles. Similarly, HEK-293 and HeLa calls can also be tested by methods known in the art. • f. Nuclear translocation: LNCaP cells are plated on coverslips in 24 well plates in growth medium. Twenty-four hours after plating, medium is changed to RPMI+1% csFBS and the cells are maintained in this medium for two days. Medium is replaced again and the cells are treated. […]

[1] = cell growth inhibition, three days of treatment

SMILES | IC50 [1] | IC50
C[C@]12CCC(=O)C[C@@H]1CC[C@@H]1[C@@H]2CC[C@]2(C)[C@@H](OCCOCC(=O)N3CCN(C(=O)c4cc(Cc5n[nH]c(=O)c6ccccc56)ccc4F)CC3)CC[C@@H]12 [Compound 1.104, 4-(3-(4-(2-(2-((5S,8R,9S,10S,13S,14S,17S)-10,13-dimethyl-3-oxohexadeca hydro-1H-cyclopenta[a]phenanthren-17-yloxy)ethoxy)acetyl)piperazine-1-carbonyl)-4-fluorobenzyl)phthalazin-1(2H)-one] | 1100 nM | 
CC(O)(CS(=O)(=O)c1ccc(NCCn2cc(CN3CCN(C(=O)c4cc(Cc5n[nH]c(=O)c6ccccc56)ccc4F)CC3)nn2)cc1)C(=O)Nc1ccc(C#N)c(C(F)(F)F)c1 (stereo in doubt) [Compound 1.97, (S)-N-(4-cyano-3-(trifluoromethyl)phenyl)-3-(4-(2-(4-((4-(2-fluoro-5-((4-oxo-3,4-dihydrophthalazin-1-yl)methyl)benzoyl)piperazin-1-yl)methyl)-1H-1,2,3-triazol-1-yl)ethylamino)phenylsulfonyl)-2-hydroxy-2-methylpropanamide] |  | > 30000 nM
C[C@]12CCC(=O)C[C@@H]1CC[C@@H]1[C@@H]2CC[C@@]2(C)[C@H]1CC[C@@]2(O)C#CC(=O)N1CCN(C(=O)c2cc(Cc3n[nH]c(=O)c4ccccc34)ccc2F)CC1 [Compound 1.116, 4-(4-fluoro-3-(4-(3-((5S,8R,9S,10S,13S,14S,17S)-17-hydroxy-10,13-dimethyl-3-oxohexadecahydro-1H-cyclopenta[a]phenanthren-17-yl)propioloyl)piperazine-1-carbonyl)benzyl)phthalazin-1(2H)-one] | 2600 nM | 

Source: patent US12398121B2 (Nuvation Bio Inc., priority 2018, dated 2025)
